In patent US20240415819A1, “MACROCYCLIC COMPOUNDS AS PROTEASOME SUBUNIT BETA TYPE-5 INHIBITORS” (Lead Discovery Center GmbH, priority 2021, published 2024):
pIC50: −log10 of the molar value.

Legend:
[1] = tested on: MM1 S (B lymphoblast cell line); test: 48 hr CTG viability assay, MM1S; format: cell-based; conditions: Homo sapiens, 48 hr CTG, read-out: MM1S IC50
Experimental: (§1) A viability assay was conducted for 48 hours to evaluate the inhibition of cancer cell growth by proteasome inhibitors. Briefly, the candidate cell line was plated with a 96-well plate following density of cells, respectively. 6×10^3 Cells/well for A2780 (human ovarian cancer cell line) and MDA-MB-468 (breast carcinoma), 8×10^3 Cells/well for Hs746T (human gastric carcinoma cell line), 1.1×10^4 Cells/well for MM1 S and RPMI 8226 (multiple myeloma). After 24 hours, the cells were treated with various concentrations of the compound (ranging from 0.0015 uM to 10 uM). […] After 48 hours of incubation at 37° C., 5% CO2 incubator, cells were analyzed for viability using the CellTiter-Glo Luminescent Cell Viability assay (Promega, Cat #G7570). All viability assays were performed in duplicate and Luminescence was read using an Envision (Perkin Elmer, USA). Data were analyzed using XLfit software. […] (human gastric carcinoma cell line), MM1 S (B lymphoblast cell line), and RPMI 8226 (B lymphocyte cell line, multiple myeloma). Inhibition is indicated as IC50 [nM] (“-”=not measured).

[2] = biological target: T1, β5 subunit of the human constitutive proteasome (CPS) (Homo sapiens, UniProt P28074); test: β5 inhibition assay, human constitutive proteasome (Suc-LLVY-AMC); format: biochemical; conditions: IC50 class, Suc-LLVY-AMC substrate
T1 construct: purchased Boston Biochem E-360
Experimental: The enzymatic activity of the β5 subunit of the human constitutive proteasome (CPS) is analyzed. In another assay, which differs from the assay of the human constitutive proteasome only in using the human immunoproteasome (IPS) the enzymatic activity of the β5 subunit of the human immunoproteasome (IPS) is analyzed. […] Inhibition is indicated as IC50 [nM] (“-”=not measured).

[3] = tested on: RPMI 8226 (B lymphocyte cell line, multiple myeloma); test: 48 hr CTG viability assay, RPMI 8226; format: cell-based; conditions: Homo sapiens, RPMI-8226; 48 hr CTG; read-out: RPMI-8226 IC50
Experimental: as §1

[4] = tested on: A549 (human lung carcinoma cell line); test: Glo assay of A549 cells (Table 3; ProteasomeGlo plating scheme); format: cell-based; conditions: Homo sapiens; A549 cells; read-out: PGLo A549
Outline: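 Cells plated in 384 wells; compound, DMSO, staurosporine transferred by ECHO; 105 min, 37° C., 5% CO2; Proteasome-Glo (Suc-LLVY-Glo) reagent added; dark 10-15 min; luminescence; IC50 nM.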

[5] = biological target: T2, β5 subunit of the human immunoproteasome (IPS) (Homo sapiens, UniProt P28062); test: β5 inhibition assay, human immunoproteasome (Suc-LLVY-AMC); format: biochemical; conditions: IC50 class, Suc-LLVY-AMC substrate
T2 construct: purchased Boston Biochem E-370
Outline: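 Human immunoproteasome (1 nM final) was preincubated 10 min at RT with compound in 100 mM HEPES pH 7.5, 50 mM NaCl, 0.02% SDS, 1 mM DTT. Suc-LLVY-AMC (22.6 μM final) was then added for 4 h at RT in the dark. After stopping with 1 μM bortezomib, AMC fluorescence was read (ex 355/em 460 nm).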

[6] = tested on: Hs 746T (human gastric carcinoma cell line); test: 48 hr CTG viability assay, Hs 746T; format: cell-based; conditions: Hs746T, 48 hr CTG, read-out: Hs 746T IC50
Experimental: as §1

Measured: pIC50

COc1ccccc1CCOCCC(=O)N[C@H]1CC(=O)N2CCCC(CCOc3ccc(C)c(c3)CNC(=O)[C@H](CCc3ccccc3)NC1=O)C2 (stereo partly drawn) [Compound 582, 3-(2-methoxyphenethoxy)-N-((9S,12S)-5^4-methyl-8,11,14-trioxo-9-phenethyl-4-oxa-7,10-diaza-1(3,1)-piperidina-5(1,3)-benzenacyclotetradecaphane-12-yl)propanamide]
> 7.00: all assays above

Cc1ccc2cc1CNC(=O)[C@H](CCC(C)C)NC(=O)[C@@H](NC(=O)Cc1cn3ccsc3n1)CC(=O)N1CCCC(CCO2)C1 (stereo partly drawn) [Compound 583, 2-(imidazo[2,1-b]thiazol-6-yl)-N-((9S,12S)-9-isopentyl-5^4-methyl-8,11,14-trioxo-4-oxa-7,10-diaza-1(3,1)-piperidina-5(1,3)-benzenacyclotetradecaphane-12-yl)acetamide]
> 7.00: all assays above

Cc1ccc2cc1CNC(=O)[C@H](CCc1ccccc1)NC(=O)[C@@H](NC(=O)C1CCC3(CCOCC3)CC1)CC(=O)N1CCCC(CCO2)C1 (stereo partly drawn) [Compound 584, N-((9S,12S)-5^4-methyl-8,11,14-trioxo-9-phenethyl-4-oxa-7,10-diaza-1(3,1)-piperidina-5(1,3)-benzenacyclotetradecaphane-12-yl)-3-oxaspiro[5.5]undecane-9-carboxamide]
> 7.00: all assays above

COc1cccc(COCCC(=O)N[C@H]2CC(=O)N3CCCC(CCOc4ccc(C)c(c4)CNC(=O)[C@H](CCc4ccccc4)NC2=O)C3)c1 (stereo partly drawn) [Compound 585, 3-((3-methoxybenzyl)oxy)-N-((9S,12S)-5^4-methyl-8,11,14-trioxo-9-phenethyl-4-oxa-7,10-diaza-1(3,1)-piperidina-5(1,3)-benzenacyclotetradecaphane-12-yl)propanamide]
> 7.00: all assays above

Cc1ccc2cc1CNC(=O)[C@H](CCc1ccccc1)NC(=O)[C@@H](NC(=O)Cc1ccc3ncccc3c1)CC(=O)N1CCCC(CCO2)C1 (stereo partly drawn) [Compound 586, N-((9S,12S)-5^4-methyl-8,11,14-trioxo-9-phenethyl-4-oxa-7,10-diaza-1(3,1)-piperidina-5(1,3)-benzenacyclotetradecaphane-12-yl)-2-(quinolin-6-yl)acetamide]
> 7.00: all assays above

COc1cccc(OCCC(=O)N[C@H]2CC(=O)N3CCCC(CCOc4ccc(C)c(c4)CNC(=O)[C@H](CCc4ccccc4)NC2=O)C3)c1 (stereo partly drawn) [Compound 587, 3-(3-methoxyphenoxy)-N-((9S,12S)-5^4-methyl-8,11,14-trioxo-9-phenethyl-4-oxa-7,10-diaza-1(3,1)-piperidina-5(1,3)-benzenacyclotetradecaphane-12-yl)propanamid]
> 7.00: all assays above

COc1ccccc1OCCC(=O)N[C@H]1CC(=O)N2CCCC(CCOc3ccc(C)c(c3)CNC(=O)[C@H](CCc3ccccc3)NC1=O)C2 (stereo partly drawn) [Compound 588, 3-(2-methoxyphenoxy)-N-((9S,12S)-5^4-methyl-8,11,14-trioxo-9-phenethyl-4-oxa-7,10-diaza-1(3,1)-piperidina-5(1,3)-benzenacyclotetradecaphane-12-yl)propanamide]
> 7.00: all assays above

Cc1ccc2cc1CNC(=O)[C@H](CCc1ccccc1)NC(=O)[C@@H](NC(=O)CCOCc1ccccc1)CC(=O)N1CCCC(CCO2)C1 (stereo partly drawn) [Compound 589, 3-(benzyloxy)-N-((9S,12S)-5^4-methyl-8,11,14-trioxo-9-phenethyl-4-oxa-7,10-diaza-1(3,1)-piperidina-5(1,3)-benzenacyclotetradecaphane-12-yl)propanamide]
> 7.00: all assays above

Cc1ccc2cc1CNC(=O)[C@H](CCc1ccccc1)NC(=O)[C@@H](NC(=O)CCOC1CC3(COC3)C1)CC(=O)N1CCCC(CCO2)C1 (stereo partly drawn) [Compound 590, 3-((2-oxaspiro[3.3]heptan-6-yl)oxy)-N-((9S,12S)-5^4-methyl-8,11,14-trioxo-9-phenethyl-4-oxa-7,10-diaza-1(3,1)-piperidina-5(1,3)-benzenacyclotetradecaphane-12-yl)propanamide]
> 7.00: all assays above

Cc1ccc2cc1CNC(=O)[C@H](CCc1ccccc1)NC(=O)[C@@H](NC(=O)CCOc1ccccc1)CC(=O)N1CCCC(CCO2)C1 (stereo partly drawn) [Compound 591, N-((9S,12S)-5^4-methyl-8,11,14-trioxo-9-phenethyl-4-oxa-7,10-diaza-1(3,1)-piperidina-5(1,3)-benzenacyclotetradecaphane-12-yl)-3-phenoxypropanamide]
> 7.00: all assays above

CCN1CCC(F)(C(=O)N[C@H]2CC(=O)N3CCCC(CCOc4ccc(C)c(c4)CNC(=O)[C@H](CCc4ccccc4)NC2=O)C3)CC1 (stereo partly drawn) [Compound 592, 1-ethyl-4-fluoro-N-((9S,12S)-5^4-methyl-8,11,14-trioxo-9-phenethyl-4-oxa-7,10-diaza-1(3,1)-piperidina-5(1,3)-benzenacyclotetradecaphane-12-yl)piperidine-4-carboxamide]
> 7.00: all assays above

Cc1ccc2cc1CNC(=O)[C@H](CCc1ccccc1)NC(=O)[C@@H](NC(=O)NC1CCCCC1)CC(=O)N1CCCC(CCO2)C1 (stereo partly drawn) [Compound 593, 1-cyclohexyl-3-((9S,12S)-5^4-methyl-8,11,14-trioxo-9-phenethyl-4-oxa-7,10-diaza-1(3,1)-piperidina-5(1,3)-benzenacyclotetradecaphane-12-yl)urea]
> 7.00: all assays above

Cc1ccc2cc1CNC(=O)[C@H](CCc1ccccc1)NC(=O)[C@@H](NC(=O)CCOCC1CC1)CC(=O)N1CCCC(CCO2)C1 (stereo partly drawn) [Compound 594, 3-(cyclopropylmethoxy)-N-((9S,12S)-5^4-methyl-8,11,14-trioxo-9-phenethyl-4-oxa-7,10-diaza-1(3,1)-piperidina-5(1,3)-benzenacyclotetradecaphane-12-yl)propanamide]
> 7.00: all assays above

Cc1ccc2cc1CNC(=O)[C@H](CCc1ccccc1)NC(=O)[C@@H](NC(=O)CCOC1CCC1)CC(=O)N1CCCC(CCO2)C1 (stereo partly drawn) [Compound 595, 3-cyclobutoxy-N-((9S,12S)-5^4-methyl-8,11,14-trioxo-9-phenethyl-4-oxa-7,10-diaza-1(3,1)-piperidina-5(1,3)-benzenacyclotetradecaphane-12-yl)propanamide]
> 7.00: all assays above

COCCOCCC(=O)N[C@H]1CC(=O)N2CCCC(CCOc3ccc(C)c(c3)CNC(=O)[C@H](CCc3ccccc3)NC1=O)C2 (stereo partly drawn) [Compound 596, 3-(2-methoxyethoxy)-N-((9S,12S)-5^4-methyl-8,11,14-trioxo-9-phenethyl-4-oxa-7,10-diaza-1(3,1)-piperidina-5(1,3)-benzenacyclotetradecaphane-12-yl)propanamide]
> 7.00: all assays above
